# Assay results from PMC4875962 (Clinical Pharmacokinetics, 2015).
# “Also recorded” adds a separate entry of the source. Like-named read-outs stand apart in the source and are kept apart here. Marks after values point to notes of the source that are not given here.
# Experiments:
# [1] = 60 mg of [14C]-edoxaban, cited from earlier work
# [2] = cited from earlier work
# OATP1B3 = details: read-out: IC50, inhibitory effect on OATP1B3; cited from earlier work
# [3] = concentrations of 0.2–5 µg/mL; cited from earlier work
# [4] = single dose, vs matched healthy controls; cited from earlier work
# OATP1B1 [5] = details: cited from earlier work
# [6] = system: plasma anti-FXa activity, PT, aPTT; details: cited from earlier work
# [7] = cited from earlier work; remark: listed apart in the source
# OCT2 [8] = details: read-out: IC50, inhibitory effect on OCT2; cited from earlier work
# CYP1A2 = assay: Induction of gene expression in human hepatocytes; details: data on file
# [9] = cited from earlier work; remark: listed apart in the source
# [10] = cited from earlier work; remark: listed apart in the source
# P-glycoprotein (P-gp) = details: Caco-2 cell monolayers; cited from earlier work
# OATP1B1 [11] = details: read-out: IC50, inhibitory effect on OATP1B1; cited from earlier work
# OCT1 = details: read-out: IC50, inhibitory effect on OCT1; cited from earlier work
# [12] = cited from earlier work; remark: listed apart in the source
# [13] = pH range of 3–7, decreases with increasing pH; cited from earlier work
# P-gp = details: read-out: IC50, inhibitory effect on P-gp; cited from earlier work
# [14] = cited from earlier work; remark: listed apart in the source
# [15] = system: multidrug resistance protein 1 (MDR1; P-gp); assay: Induction of gene expression in human hepatocytes; details: data on file
# [16] = cited from earlier work; for dose–exposure relationship: oral doses 10–180 mg
# CYP3A4 = assay: Induction of gene expression in human hepatocytes; details: data on file
# OCT2 [17] = details: cited from earlier work
# [18] = system: ex vivo thrombus formation; details: single 60 mg dose, healthy subjects; cited from earlier work
# [19] = cited from earlier work; remark: listed apart in the source
# Caco-2 cells = details: cited from earlier work
# [20] = cited from earlier work; remark: listed apart in the source
# [21] = system: PT, INR, aPTT, intrinsic FX activity, thrombin generation, anti-FXa; details: cited from earlier work
# CYPs = details: read-out: IC50, inhibitory effect on CYPs; cited from earlier work
# OAT3 = details: read-out: IC50, inhibitory effect on OAT3; cited from earlier work
# [22] = 60 mg twice daily, elderly healthy subjects; cited from earlier work
# [23] = 60 mg daily for 4 days, day 1 and day 4
# [24] = Mild impairment: CLCR ≥50–≤80 mL/min
# [25] = Moderate impairment: CLCR ≥30–<50 mL/min
# [26] = Severe impairment: CLCR <30 mL/min
# [27] = intravenous 30 mg, healthy subjects
# [28] = single oral dose of edoxaban 60 mg, healthy subjects, mean ± SD
smiles,measurement,setting,value
CN1CCc2nc(C(=O)N[C@@H]3C[C@@H](C(=O)N(C)C)CC[C@@H]3NC(=O)C(=O)Nc3ccc(Cl)cn3)sc2C1 [edoxaban],total radioactive dose detected in faeces,[1]; healthy subjects,62%
same,total radioactive dose detected in urine,[1]; healthy subjects,35%
same,"unchanged edoxaban in faeces, share of total administered radioactive dose",[1],49%
same,"unchanged edoxaban in urine, share of total administered radioactive dose",[1],24%
same,pharmacokinetic parameters vs continual treatment with edoxaban,[2]; 60 mg on day 4 after rivaroxaban 20 mg once daily for 3 days,similar
same,pharmacokinetic parameters vs 4 days of continual edoxaban,[2]; 60 mg single dose after dabigatran 150 mg twice daily for 3 days,similar
same,"anticoagulant effects (anti-FXa, PT, aPTT, ETP) vs 4 days of continual edoxaban",[2]; after switching from rivaroxaban,similar
same,"PT and anti-FXa activities, switched from dabigatran vs continuous edoxaban",[2],not different
same,aPTT and ETP after switching from dabigatran,[2],carryover effect
same,effect of warfarin on the pharmacokinetics of edoxaban,[2]; switching 24 h after cessation of warfarin,no effect
same,IC50,OATP1B3,≥ 50 µM
same,in vitro total plasma protein binding,[3],about 55%
same,effect of mild or moderate hepatic impairment on peak or total exposure,[4],did not significantly impact
same,substrate of OATP1B1,OATP1B1 [5],is not a substrate
same,time to peak elevation of PT and aPTT,[6]; [23],≤ 2 h
same,time to return of PT and aPTT to near-baseline levels,[6]; [23],≤ 24 h
same,"time to peak effects on anticoagulation markers (anti-FXa, PT, aPTT)",[6]; oral administration,1 to 2 h
same,time to maximum effect on plasma anti-FXa activity,"[6]; single dose 10–150 mg, healthy subjects",1 to 2 h
same,partition in blood,[7],46%
same,IC50,OCT2 [8],≥ 100 µM
same,induction of gene expression of CYP1A2,CYP1A2,do not induce
same,increase of mean peak exposure (Cmax) in the fed state vs fasted state,[9]; 60 mg single dose,6–22%
same,increase of total exposure with food,[9]; 60 mg single dose,12–15%
same,effect of food on total exposure,[9],Coadministration with food does not affect total edoxaban exposure
same,AUC∞,[10]; [24],636 ± 152 ng·h/mL
same,CL/F,[10]; [24],24.8 ± 6.00 L/h
same,CLR,[10]; [24],7.68 ± 2.57 L/h
same,AUC∞,[10]; [25],816 ± 209 ng·h/mL
same,C max,[10]; [25],115 ± 42.3 ng/mL
same,CL/F,[10]; [25],19.4 ± 4.69 L/h
same,CLR,[10]; [25],4.30 ± 1.72 L/h
same,AUC∞,[10]; Normal: CLCR >80 mL/min,453 ± 102 ng·h/mL
same,CL/F,[10]; Normal: CLCR >80 mL/min,34.6 ± 7.32 L/h
same,C max,[10]; [26],91.9 ± 32.8 ng/mL
same,CL/F,[10]; [26],18.5 ± 4.87 L/h
same,CLR,[10]; [26],2.12 ± 0.88 L/h
same,higher total exposure vs normal renal function,[10]; mild renal impairment (CLCR ≥50–≤80 mL/min),32%
same,higher total exposure vs normal renal function,[10]; moderate renal impairment (CLCR ≥30–<50 mL/min),74%
same,higher total exposure vs normal renal function,[10]; severe renal impairment (CLCR <30 mL/min),72%
same,substrate of the efflux transporter P-gp,P-glycoprotein (P-gp),is a substrate
same,IC50,OATP1B1 [11],≥ 50 µM
same,IC50,OCT1,≥ 100 µM
same,fraction absorbed in the colon,[12],approximately 13%
same,solubility,[13],pH dependent
same,IC50,P-gp,≥ 50 µM
same,safety assessed by bleeding events versus warfarin,[14],improved safety
same,efficacy versus warfarin,"[14]; non-valvular AF, deep vein thrombosis and pulmonary embolism",noninferior
same,induction of gene expression of MDR1 (P-gp),[15],do not induce
same,"effect of age, sex and race on edoxaban pharmacokinetics",[16]; after renal function is taken into account,do not affect
same,contribution of any individual metabolic pathway to total clearance,[16],≤ 10%
same,inter- and intra-subject variability in clearance and volume of distribution,[16],< 30%
same,metabolism by CYP3A4 (CYP3A4/5) (share of clearance),[16],< 10%
same,renal clearance as share of total clearance,[16],approximately 50%
same,Renal clearance,[16]; healthy subjects,about 10.7 ± 3.00 L/h
same,metabolism by CES1 (share of clearance),[16]; human-specific metabolite,< 10%
same,CL total body clearance,[16]; [27],approximately 22 L/h
same,V ss steady-state volume of distribution,[16]; [27],approximately 107 L
same,V z volume of distribution based on the terminal phase,[16]; [27],205 ± 64.8 L
same,CL total body clearance,"[16]; intravenous 30 mg, healthy subjects, listed as Edoxaban",21.8 ± 3.03 L/h
same,dose–exposure relationship,[16]; healthy subjects,approximately dose proportional; also recorded: slightly less-than-dose-proportional
same,dose–exposure relationship,"[16]; healthy subjects, listed as Edoxaban",generally linear and dose-proportional
same,terminal elimination half-life,"[16]; oral, healthy subjects",10 to 14 h
same,CLR (oral),"[16]; single oral dose of edoxaban 60 mg, healthy subjects, N = 32",9.95 ± 2.32^a L/h
same,AUC∞ (oral),[16]; [28],1766 ± 435.3 ng·h/mL
same,C max (oral),[16]; [28],256 ± 87.7 ng/mL
same,t ½ (oral),[16]; [28],11.5 ± 5.63 h
same,t max (oral),"[16]; single oral dose of edoxaban 60 mg, healthy subjects, median [minimum–maximum]",1.02 [0.500–3.00] h
same,induction of gene expression of CYP3A4,CYP3A4,do not induce
same,substrate of OCT2,OCT2 [17],is not a substrate
same,ex vivo thrombus formation under high and low shear rates,[18],markedly reduced
same,effect on prolongation of bleeding time,[19]; coadministration of edoxaban and low-dose (100 mg) or high-dose aspirin (325 mg),additive effect
same,increase in bleeding time vs naproxen alone,"[19]; coadministration of edoxaban with naproxen, 90 % CI 98.1–151.0",22%
same,permeability in Caco-2 cells,Caco-2 cells,poor
same,"change in QTcI value, one subject","[20]; 90 mg dose group, 10 h postdose",32 ms
same,upper bounds of the 95 % one-sided CIs for placebo-corrected QTcI change from time-matched baseline,"[20]; 90 and 180 mg, any time point",≤ 4 ms
same,effect on cardiac repolarization,[20]; 90 and 180 mg,did not have a threshold pharmacological effect
same,"changes in QTcI, all except one subject",[20]; all time points,below 30 ms
same,absolute value of QTcI,"[20]; any subject, 90 and 180 mg",≤ 450 ms
same,"effect on PT, INR, aPTT or intrinsic FX activity",[21]; coadministration of low-dose aspirin (100 mg),did not significantly affect
same,effect on anti-FXa when both drugs coadministered,[21]; edoxaban 60 mg and subcutaneous enoxaparin 1 mg/kg,additive
same,IC50,CYPs,≥ 100 µM
same,IC50,OAT3,≥ 100 µM
same,rebound effect following cessation of dosing,[22],no evidence of a rebound effect
